27 compounds from US12509454B2, “Thiadiazolyl derivatives” (IDEAYA Biosciences, Inc., priority 2019, dated 2025) can be followed below.

Molecules are shown by their SMILES.

The assay has as its target Pol theta (1-899) (Homo sapiens (Human), UniProt O75417). Nature of the assay: Pol theta ATPase activity, NADH oxidation-coupled enzymatic assay. It is filed as biochemical. To be noted: Pol theta (1-899) 10 nM, ATP, dT50 ssDNA, absorbance 340 nm, 10-point dilution series; read-out: ATPase NADH coupling:Standard Screening:hPolQ IC50. As to the method:
The ability of the compounds of Formula (I) to inhibit ATPase activity of Pol theta (1-899) was determined using the assay described below.
Pol Theta ATPase activity was determined by measuring the rate of ATP turn over in a NADH oxidation-coupled enzymatic assay. 10-point dilution series of compounds were used in a 384 well format for the inhibition assays. Pol theta (1-899) (10 nM) in assay buffer (20 mM Tris HCl (pH 7.80), 80 mM KCl, 10 mM MgCl2, 1 mM DTT, 0.01% BSA, 0.01% Tween, 5% glycerol) was transferred to the test wells (20 μL), except the low control wells (20 μL of assay buffer was added to the low control wells). The plate was then incubated at room temperature for 15 min. An equal volume (20 μL) of 100 μM ATP, 300 nM dT50 (single-stranded DNA (ssDNA) containing 50 thymine bases), 300 μM NADH, 6 mM PEP, 10 U/mL lactate dehydrogenase and 20 U/mL pyruvate kinase in assay buffer was added to all the test wells. The plate was then centrifuged at 1000 rpm for 1 min. The reaction was monitored for 30 min by measuring absorbance (λ=340 nm) in a Tecan Spark multimode plate reader every minute. The high control (DMSO with enzyme) with low absorbance intensity represents no inhibition of ATPase reaction while the low control (DMSO with buffer) with high absorbance intensity represents full inhibition of ATPase activity. Slope of the reaction progress curves were used to calculate the rate of ATP hydrolysis. The rates were used to determine the percent inhibition using a four-parameter inhibition model to generate IC50, Hill slope and max inhibition.

Chain of Pol theta (1-899) (O75417 1-899): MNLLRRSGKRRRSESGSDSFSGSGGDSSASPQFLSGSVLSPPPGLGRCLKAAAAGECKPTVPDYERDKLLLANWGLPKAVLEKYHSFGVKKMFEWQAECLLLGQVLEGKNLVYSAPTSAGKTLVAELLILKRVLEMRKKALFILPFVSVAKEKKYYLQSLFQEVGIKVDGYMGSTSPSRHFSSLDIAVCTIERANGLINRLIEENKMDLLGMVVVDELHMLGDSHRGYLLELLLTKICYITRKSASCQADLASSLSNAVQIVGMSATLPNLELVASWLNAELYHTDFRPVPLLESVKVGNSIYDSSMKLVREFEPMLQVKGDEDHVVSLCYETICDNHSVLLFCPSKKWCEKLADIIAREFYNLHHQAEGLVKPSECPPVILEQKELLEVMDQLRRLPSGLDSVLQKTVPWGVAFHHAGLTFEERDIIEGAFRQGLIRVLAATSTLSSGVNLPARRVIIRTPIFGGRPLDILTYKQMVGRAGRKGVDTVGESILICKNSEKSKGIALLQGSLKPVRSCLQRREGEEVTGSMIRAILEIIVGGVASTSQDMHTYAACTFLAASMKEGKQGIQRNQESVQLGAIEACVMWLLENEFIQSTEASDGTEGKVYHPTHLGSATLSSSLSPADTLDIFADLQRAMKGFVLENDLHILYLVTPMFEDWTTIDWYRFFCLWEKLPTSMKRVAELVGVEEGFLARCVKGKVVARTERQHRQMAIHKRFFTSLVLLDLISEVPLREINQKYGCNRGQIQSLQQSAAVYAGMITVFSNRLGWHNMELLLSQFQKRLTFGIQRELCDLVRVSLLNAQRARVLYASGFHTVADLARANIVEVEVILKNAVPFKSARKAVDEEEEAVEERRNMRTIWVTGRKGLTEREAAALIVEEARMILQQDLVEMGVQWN

For `O=C(Nc1nnc(OCc2ccc(Cl)cc2)s1)c1ccncc1[C@@]12CCOC[C@@H]1C2` (mixture of isomers) [Example 175, 3-((1R,6S)-3-oxabicyclo[4.1.0]heptan-6-yl)-N-(5-((4-chlorobenzyl)oxy)-1,3,4-thiadiazol-2-yl)isonicotinamide and 3-((1S,6R)-3-oxabicyclo[4.1.0]heptan-6-yl)-N-(5-((4-chlorobenzyl)oxy)-1,3,4-thiadiazol-2-yl)isonicotinamide], the IC50 is ≤ 200 nM.
Turning to `CC1COCCN1c1ncccc1C(=O)Nc1nnc(OCc2ccc(Cl)cc2)s1` (racemic) [Example 5, (R) N-(5-((4-chlorobenzyl)oxy)-1,3,4-thiadiazol-2-yl)-2-(3-methylmorpholino)-nicotinamide and (S)—N-(5-((4-chlorobenzyl)oxy)-1,3,4-thiadiazol-2-yl)-2-(3-methylmorpholino)nicotinamide], the IC50 lay within 200 to 500 nM.
Then `CC1CN(c2ncccc2C(=O)Nc2nnc(OCc3ccc(Cl)cc3)s2)CCO1` (racemic) [Example 7, (R)—N-(5-((4-chlorobenzyl)oxy)-1,3,4-thiadiazol-2-yl)-2-(2-methylmorpholino)nicotinamide and (S)—N-(5-((4-chlorobenzyl)oxy)-1,3,4-thiadiazol-2-yl)-2-(2-methylmorpholino)nicotinamide], with 200 to 500 nM; and `CC1CN(c2ncccc2C(=O)Nc2nnc(OCc3ccc(Cl)cc3)s2)CC(=O)N1` (racemic) [Example 46, (R) N-(5-((4-chlorobenzyl)oxy)-1,3,4-thiadiazol-2-yl)-2-(3-methyl-5-oxopiperazin-1-yl)nicotinamide and (S) N-(5-((4-chlorobenzyl)oxy)-1,3,4-thiadiazol-2-yl)-2-(3-methyl-5-oxopiperazin-1-yl)nicotinamide], with 200 to 500 nM.
The result for `CC1C(=O)NCCN1c1ncccc1C(=O)Nc1nnc(OCc2ccc(Cl)cc2)s1` (racemic) [Example 52, (R) N-(5-((4-chlorobenzyl)oxy)-1,3,4-thiadiazol-2-yl)-2-(2-methyl-3-oxopiperazin-1-yl)nicotinamide and (S) N-(5-((4-chlorobenzyl)oxy)-1,3,4-thiadiazol-2-yl)-2-(2-methyl-3-oxopiperazin-1-yl)nicotinamide] reads 200 to 500 nM.
With `O=C(Nc1nnc(OCc2ccc(Cl)cc2)s1)c1cccnc1N1CCN2C(=O)CCC2C1` (racemic) [Example 57, (R) N-(5-((4-chlorobenzyl)oxy)-1,3,4-thiadiazol-2-yl)-2-(6-oxohexahydropyrrolo[1,2-a]pyrazin-2(1H)-yl)nicotinamide and (S) N-(5-((4-chlorobenzyl)oxy)-1,3,4-thiadiazol-2-yl)-2-(6-oxohexahydropyrrolo[1,2-a]pyrazin-2(1H)-yl)nicotinamide], the IC50 is 500 to 1000 nM.
The result for `CC1CNC(=O)CN1c1ncccc1C(=O)Nc1nnc(OCc2ccc(Cl)cc2)s1` (racemic) [Example 60, (R) N-(5-((4-chlorobenzyl)oxy)-1,3,4-thiadiazol-2-yl)-2-(2-methyl-5-oxopiperazin-1-yl)nicotinamide and (S) N-(5-((4-chlorobenzyl)oxy)-1,3,4-thiadiazol-2-yl)-2-(2-methyl-5-oxopiperazin-1-yl)nicotinamide] reads ≤ 200 nM; that for `COc1ccccc1-c1cc([C@@H](C)O)ncc1C(=O)Nc1nnc(OCc2ccc(Cl)cc2)s1` (racemic) [Example 167, N-[5-[(4-chlorophenyl)methoxy]-1,3,4-thiadiazol-2-yl]-6-(1-hydroxyethyl)-4-(2-methoxyphenyl)pyridine-3-carboxamide], 200 to 500 nM; that for `C[C@@H]1C(=O)NCCN1c1cnccc1C(=O)Nc1nnc(OCc2ccc(Cl)cn2)s1` (racemic) [Example 179, (S)—N-(5-((5-chloropyridin-2-yl)methoxy)-1,3,4-thiadiazol-2-yl)-3-(2-methyl-3-oxopiperazin-1-yl)isonicotinamide and (R)—N-(5-((5-chloropyridin-2-yl)methoxy)-1,3,4-thiadiazol-2-yl)-3-(2-methyl-3-oxopiperazin-1-yl)isonicotinamide], ≤ 200 nM.
Then `O=C(Nc1nnc(OCc2ccc(Cl)cc2)s1)c1cccnc1N1CCN2C(=O)CC[C@H]2C1` (single isomer, unassigned) [Example 69, (R)—N-(5-((4-chlorobenzyl)oxy)-1,3,4-thiadiazol-2-yl)-2-(6-oxohexahydropyrrolo[1,2-a]pyrazin-2(1H)-yl)nicotinamide or (S)—N-(5-((4-chlorobenzyl)oxy)-1,3,4-thiadiazol-2-yl)-2-(6-oxohexahydropyrrolo[1,2-a]pyrazin-2(1H)-yl)nicotinamide], with 1000 to 10000 nM; and `O=C(Nc1nnc(OCc2ccc(Cl)cc2)s1)c1cccnc1N1CCN2C(=O)CC[C@@H]2C1` (single isomer, unassigned) [Example 70, (R)—N-(5-((4-chlorobenzyl)oxy)-1,3,4-thiadiazol-2-yl)-2-(6-oxohexahydropyrrolo-[1,2-a]pyrazin-2(1H)-yl)nicotinamide or (S)—N-(5-((4-chlorobenzyl)oxy)-1,3,4-thiadiazol-2-yl)-2-(6-oxohexahydropyrrolo[1,2-a]pyrazin-2(1H)-yl)nicotinamide], with 500 to 1000 nM.
Then `O=C(Nc1nnc(OCc2ccc(F)cc2)s1)c1cccnc1N1CCOCC1` [Example 1, N-(5-((4-fluorobenzyl)oxy)-1,3,4-thiadiazol-2-yl)-2-morpholinonicotinamide], with 1000 to 10000 nM; and `O=C(Nc1nnc(OCc2ccc(Cl)cc2)s1)c1cccnc1N1CCOCC1` [Example 2, N-(5-((4-chlorobenzyl)oxy)-1,3,4-thiadiazol-2-yl)-2-morpholinonicotinamide], with 500 to 1000 nM.
Take `O=C(Nc1nnc(OCc2ccc(Cl)cn2)s1)c1cccnc1N1CCOCC1` [Example 3]: the IC50 lay within 1000 to 10000 nM.
Turning to `O=C(Nc1nnc(OCc2ccc(Cl)cc2)s1)c1cncn1-c1ccccc1` [Example 4, N-(5-((4-chlorobenzyl)oxy)-1,3,4-thiadiazol-2-yl)-1-phenyl-1H-imidazole-5-carboxamide], the IC50 was 500 to 1000 nM.
Then `O=C(Nc1nnc(OCc2ccc(Cl)cc2)s1)c1cccnc1N1CCCOCC1` [Example 6, N-(5-((4-chlorobenzyl)oxy)-1,3,4-thiadiazol-2-yl)-2-(1,4-oxazepan-4-yl)nicotinamide], with 200 to 500 nM; and `O=C(Nc1nnc(OCc2ccc(Cl)nc2)s1)c1cccnc1N1CCOCC1` [Example 8, N-(5-((6-chloropyridin-3-yl)methoxy)-1,3,4-thiadiazol-2-yl)-2-morpholinonicotinamide], with 1000 to 10000 nM.
For `C[C@@H]1COCCN1c1ncccc1C(=O)Nc1nnc(OCc2ccc(Cl)cc2)s1` [Example 9, (R)—N-(5-((4-chlorobenzyl)oxy)-1,3,4-thiadiazol-2-yl)-2-(3-methylmorpholino)nicotinamide], the IC50 lay in the range of 200 to 500 nM.
`C[C@H]1COCCN1c1ncccc1C(=O)Nc1nnc(OCc2ccc(Cl)cc2)s1` [Example 10, (S)—N-(5-((4-chlorobenzyl)oxy)-1,3,4-thiadiazol-2-yl)-2-(3-methyl-morpholino)nicotinamide]: the IC50 fell in the range of 500 to 1000 nM.
The result for `O=C(Nc1nnc(OCc2ccc(Cl)cc2)s1)c1cccnc1-n1cnnn1` [Example 11, N-(5-((4-chlorobenzyl)oxy)-1,3,4-thiadiazol-2-yl)-2-(1H-tetrazol-1-yl)nicotinamide] reads 1000 to 10000 nM.
The result for `COc1ccc(-n2cncc2C(=O)Nc2nnc(OCc3ccc(Cl)cc3)s2)cc1` [Example 12, N-(5-((4-chlorobenzyl)oxy)-1,3,4-thiadiazol-2-yl)-1-(4-methoxyphenyl)-1H-imidazole-5-carboxamide] reads 200 to 500 nM; that for `O=C(Nc1nnc(OCc2ccc(Cl)cc2)s1)c1cncnc1N1CCOCC1` [Example 13, N-(5-((4-chlorobenzyl)oxy)-1,3,4-thiadiazol-2-yl)-4-morpholinopyrimidine-5-carboxamide], 200 to 500 nM.
Consider `N#Cc1ccc(C(=O)Nc2nnc(OCc3ccc(Cl)cc3)s2)c(N2CCOCC2)n1` [Example 14, N-(5-((4-chlorobenzyl)oxy)-1,3,4-thiadiazol-2-yl)-6-cyano-2-morpholinonicotinamide], for which the IC50 was ≤ 200 nM.
Then `O=C(Nc1nnc(OCc2ccc(Br)cn2)s1)c1cccnc1N1CCOCC1` [Example 15], with 1000 to 10000 nM; and `CC(=O)N1CCN(c2ncccc2C(=O)Nc2nnc(OCc3ccc(Cl)cc3)s2)CC1` [Example 16, 2-(4-acetylpiperazin-1-yl)-N-(5-((4-chlorobenzyl)oxy)-1,3,4-thiadiazol-2-yl)nicotinamide], with 1000 to 10000 nM.
Then `O=C(Nc1nnc(OCc2ccc(Cl)cc2)s1)c1cncn1-c1cccnc1` [Example 17, N-(5-((4-chlorobenzyl)oxy)-1,3,4-thiadiazol-2-yl)-1-(pyridin-3-yl)-1H-imidazole-5-carboxamide], with 500 to 1000 nM; and `O=C(Nc1nnc(OCc2ccc(Cl)cc2)s1)c1cncn1-c1ccncc1` [Example 18, N-(5-((4-chlorobenzyl)oxy)-1,3,4-thiadiazol-2-yl)-1-(pyridin-4-yl)-1H-imidazole-5-carboxamide], with 500 to 1000 nM.

The term IC50 denotes the point on the concentration scale where inhibition reaches its midpoint.
